In patent US12576069B2, “Compositions and methods for treating slow-flow vascular malformations” (YALE UNIVERSITY, priority 2019, dated 2026):
Like-named read-outs stand apart in the source and are kept apart here. Values belong to the molecule of their own block, whether it stands above or below them.

Assays:
[1] = cited from earlier work
[2] = tested on: venous malformation
Experimental: A relatively healthy patient with severely symptomatic venous malformations of the subcutaneous and intramuscular components of their thigh was treated according to methods of the disclosure. Their lesions were examined and diagnosis of the condition was made and confirmed based on duplex ultrasound and contrast enhanced MRI. […] Solutions were delivered to the patient using an operating suite using a sterile syringe. A total of 2 mL of omnipaque intravenous contrast was added into the mixture for radiopacity purposes under fluoroscopy and for in vivo visualization of the drug. Final concentration of the mixture was approximately 1 mg/mL This mixture was agitated via a three-way stopcock in the absence of air. The venous malformations were accessed percutaneously, using ultrasound and x-ray guidance. […] Different components of this multi focal venous malformation were similarly targeted and treated. […] Needle access tracts were plugged using a collagen matrix foam, and a sterile dressing was applied. The procedure was done under general endotracheal anesthesia, and the patient received postoperative anti-inflammatory and analgesic medications. […] A healthy patient with a disfiguring, symptomatic venous malformation of the subcutaneous tissues of the left nare was treated according to methods of the disclosure. Their lesion was examined, and diagnosis of the condition was made and confirmed based on contrast enhanced MRI. […] Solutions were delivered to the patient using an operating suite using a sterile syringe. A total of 2 mL of omnipaque intravenous contrast was added into the mixture for radiopacity purposes under fluoroscopy and for in vivo visualization of the drug. Final concentration of the mixture was approximately 1 mg/mL. This mixture was agitated via a three-way stopcock in the absence of air. The venous malformation was accessed percutaneously, using ultrasound and x-ray guidance. […] Different components of this focal venous malformation were similarly targeted and treated. […] Needle access tracts were plugged using a collagen matrix foam, and a sterile dressing was applied. The procedure was done under general endotracheal anesthesia, and the patient received postoperative anti-inflammatory and analgesic medications.

[3] = tested on: complicated vascular malformations; conditions: cited from earlier work
[4] = tested on: congenital vascular malformations; conditions: conventional treatment of vascular malformations; at times lethal; cited from earlier work
[5] = oral rapamycin, toxicities attributable to rapamycin

fevers or infection at follow-up ([2]; human, in vivo): no evidence of fevers or infection | fevers, infection at follow-up ([2]; human, in vivo): no evidence of fevers, infection | perioperative complications ([2]; human, in vivo): no perioperative complications | post-operative labs ([2]; human, in vivo): within expected, normal limits
SMILES: CO[C@H]1C[C@@H]2CC[C@@H](C)[C@@](O)(O2)C(=O)C(=O)N2CCCC[C@H]2C(=O)O[C@H]([C@H](C)C[C@@H]2CC[C@@H](OC(=O)C(C)(CO)CO)[C@H](OC)C2)CC(=O)[C@H](C)/C=C(\C)[C@@H](O)[C@@H](OC)C(=O)[C@H](C)C[C@H](C)/C=C/C=C/C=C/1C [Temsirolimus]
peak concentration Cmax, temsirolimus compared with sirolimus ([1]; IV infusion, theoretical comparison of equal units): almost similar | pain relief at follow-up ([2]; Example 1, post-operative day two, 14, and 90): excellent pain relief | venous flow in the malformation, color flow Doppler ([2]; Example 2, left nasal venous malformation, FIGS. 5A-5B): diminished venous flow | pain relief at follow-up ([2]; Example 2, post-operative day 14 and day ~90): partial pain relief | normal arterial flow adjacent to the malformation, spectral waveform analysis ([2]; human, in vivo): preservation of intervening normal arterial network of the face

SMILES: CO[C@H]1C[C@@H]2CC[C@@H](C)[C@@](O)(O2)C(=O)C(=O)N2CCCC[C@H]2C(=O)O[C@H]([C@H](C)C[C@@H]2CC[C@@H](O)[C@H](OC)C2)CC(=O)[C@H](C)/C=C(\C)[C@@H](O)[C@@H](OC)C(=O)[C@H](C)C[C@H](C)/C=C/C=C/C=C/1C [rapamycin]
sirolimus AUC relative to temsirolimus AUC ([1]; single 25 mg intravenous dose of temsirolimus, patients with cancer): 2.7 fold | patients taken off of the study due to persistent adverse effects ([3]; oral rapamycin, phase II trial enrolling 61 patients): Two | Grade 3 and higher blood/bone marrow toxicity, share of patients [3, 5]: 27% | Grade 3 and higher gastrointestinal toxicity, share of patients [3, 5]: 3% | Grade 3 and higher metabolic/laboratory toxicity, share of patients [3, 5]: 3% | other commonly reported negative side effects ([3]; systemic rapamycin): stomatitis, headache, infections, myelodepression, acne, and hyperlipidemia

SMILES: CCO [absolute ethanol, ethanol]
side effect profile [4]: up to 50%
